Measured values published in patent US10435371B2, “Multifunctional aminoquinoline therapeutic agent” (LOHOCLA RESEARCH CORPORATION, priority 2014, dated 2019).

What was measured:
[1] = system: rats treated with Complete Freund's Adjuvant; assay: Reversal of CFA-induced neuropathic pain (von Frey mechanical pain threshold); format: in vivo, rat; settings: for Mechanical pain threshold, ratio to baseline: 1 hour
[2] = system: rats treated with cisplatin; assay: Reversal of cisplatin-induced neuropathic pain (von Frey mechanical pain threshold); format: in vivo, rat; settings: 50 mg/kg oral
[3] = biological target: mGluR5 (Metabotropic Glutamate Rs) (Homo sapiens, UniProt P41594); assay: PDSP radioligand binding
Chain of mGluR5 (Metabotropic Glutamate Rs) (P41594 21-1212): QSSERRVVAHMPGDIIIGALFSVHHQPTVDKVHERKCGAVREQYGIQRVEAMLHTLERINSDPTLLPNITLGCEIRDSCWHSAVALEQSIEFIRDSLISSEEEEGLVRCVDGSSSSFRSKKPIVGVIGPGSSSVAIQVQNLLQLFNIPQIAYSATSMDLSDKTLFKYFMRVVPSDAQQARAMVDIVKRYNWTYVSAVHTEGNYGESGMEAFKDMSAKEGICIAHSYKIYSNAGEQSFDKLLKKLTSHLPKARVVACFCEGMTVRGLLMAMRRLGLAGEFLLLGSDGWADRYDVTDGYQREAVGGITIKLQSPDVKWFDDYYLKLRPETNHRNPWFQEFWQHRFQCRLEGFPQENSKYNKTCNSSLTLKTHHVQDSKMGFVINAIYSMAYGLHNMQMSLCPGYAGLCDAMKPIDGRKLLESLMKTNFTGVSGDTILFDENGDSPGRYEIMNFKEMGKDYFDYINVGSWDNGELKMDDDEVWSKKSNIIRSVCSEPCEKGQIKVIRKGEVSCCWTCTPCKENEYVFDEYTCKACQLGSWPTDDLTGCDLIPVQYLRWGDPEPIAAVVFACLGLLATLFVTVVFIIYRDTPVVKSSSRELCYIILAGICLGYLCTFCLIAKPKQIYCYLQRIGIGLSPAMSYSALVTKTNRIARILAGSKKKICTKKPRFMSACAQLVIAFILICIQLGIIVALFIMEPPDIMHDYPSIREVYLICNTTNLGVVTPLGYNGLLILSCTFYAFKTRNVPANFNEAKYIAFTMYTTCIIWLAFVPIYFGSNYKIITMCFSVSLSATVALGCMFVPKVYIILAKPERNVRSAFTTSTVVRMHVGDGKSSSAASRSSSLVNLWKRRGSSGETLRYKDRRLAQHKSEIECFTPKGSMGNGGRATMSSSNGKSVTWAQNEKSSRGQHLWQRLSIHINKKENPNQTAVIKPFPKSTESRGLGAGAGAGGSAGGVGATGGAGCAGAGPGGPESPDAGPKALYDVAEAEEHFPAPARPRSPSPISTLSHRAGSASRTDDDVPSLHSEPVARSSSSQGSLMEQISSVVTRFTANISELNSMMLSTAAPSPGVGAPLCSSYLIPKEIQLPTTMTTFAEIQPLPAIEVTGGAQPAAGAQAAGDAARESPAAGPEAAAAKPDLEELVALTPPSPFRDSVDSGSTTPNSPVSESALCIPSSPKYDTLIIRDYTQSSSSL

5-HT2B (Serotonin Rs) = 5-HT2B (Serotonin Rs) (Homo sapiens, UniProt P41595); assay: PDSP radioligand binding
Chain of 5-HT2B (Serotonin Rs) (P41595 whole entry): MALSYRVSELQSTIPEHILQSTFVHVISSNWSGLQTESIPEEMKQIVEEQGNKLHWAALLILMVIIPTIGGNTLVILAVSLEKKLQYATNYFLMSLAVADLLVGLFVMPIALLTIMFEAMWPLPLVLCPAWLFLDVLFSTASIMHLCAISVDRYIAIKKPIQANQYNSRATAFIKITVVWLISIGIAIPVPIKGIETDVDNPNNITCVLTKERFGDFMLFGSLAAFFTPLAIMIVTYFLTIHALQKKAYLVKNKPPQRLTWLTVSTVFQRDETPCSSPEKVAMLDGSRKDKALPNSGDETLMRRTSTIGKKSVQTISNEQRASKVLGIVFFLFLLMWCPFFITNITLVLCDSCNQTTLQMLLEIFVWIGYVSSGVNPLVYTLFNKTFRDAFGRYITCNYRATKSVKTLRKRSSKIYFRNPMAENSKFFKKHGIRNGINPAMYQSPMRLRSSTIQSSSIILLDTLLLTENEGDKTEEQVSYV

delta opiate receptor = delta opiate receptor (Homo sapiens, UniProt P41143); assay: cAMP accumulation, HeLa cells transfected with D1 receptor, DOR and AC5; format: cell-based; design: expressed in transfected cells; settings: HeLa cells, AC5
Chain of delta opiate receptor (P41143 whole entry): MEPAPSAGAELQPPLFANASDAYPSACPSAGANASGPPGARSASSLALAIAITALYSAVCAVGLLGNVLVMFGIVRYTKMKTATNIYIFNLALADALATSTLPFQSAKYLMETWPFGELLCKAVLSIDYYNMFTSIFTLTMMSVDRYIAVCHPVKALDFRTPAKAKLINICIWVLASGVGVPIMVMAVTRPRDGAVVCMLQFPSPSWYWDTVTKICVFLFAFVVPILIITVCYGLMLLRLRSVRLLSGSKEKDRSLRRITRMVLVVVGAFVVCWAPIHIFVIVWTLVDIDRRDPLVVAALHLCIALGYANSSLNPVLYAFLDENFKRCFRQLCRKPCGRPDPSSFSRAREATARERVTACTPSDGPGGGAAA

[4] = biological target: BDZ site, GABA-A Receptor; assay: PDSP radioligand displacement, [^3H]Flunitrazepam; design: species or system rat; settings: read-out: Binding constant Ki, BDZ site, GABA-A Receptor
[5] = biological target: T1, GABA-A receptors (α1, β2, γ2s subunits) (UniProt P18508+P47870+P62813); assay: Two-electrode voltage clamp, GABA-A receptors expressed in Xenopus oocytes; format: cell-based, rat α1 and γ2s, human β2; settings: FIG. 4A
T1 construct: expressed in transfected cells; host or cells: Xenopus laevis oocytes injected with capped cRNAs (α1:β2:γ2s 2:2:20 ng)
T1 sequence (P62813 28-455): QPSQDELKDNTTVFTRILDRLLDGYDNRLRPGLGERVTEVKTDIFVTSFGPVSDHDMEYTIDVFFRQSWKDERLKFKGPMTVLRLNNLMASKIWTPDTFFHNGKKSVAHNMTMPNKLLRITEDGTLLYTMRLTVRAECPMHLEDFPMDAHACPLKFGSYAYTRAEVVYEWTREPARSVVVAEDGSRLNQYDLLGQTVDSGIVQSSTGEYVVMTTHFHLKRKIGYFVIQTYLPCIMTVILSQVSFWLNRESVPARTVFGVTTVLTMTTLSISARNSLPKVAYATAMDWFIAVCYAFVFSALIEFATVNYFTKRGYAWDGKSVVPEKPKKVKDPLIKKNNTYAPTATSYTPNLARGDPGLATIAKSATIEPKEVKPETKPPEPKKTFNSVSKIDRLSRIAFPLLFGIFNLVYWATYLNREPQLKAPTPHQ
T1 sequence (P47870 26-474 isoform P47870-1 limits assumed): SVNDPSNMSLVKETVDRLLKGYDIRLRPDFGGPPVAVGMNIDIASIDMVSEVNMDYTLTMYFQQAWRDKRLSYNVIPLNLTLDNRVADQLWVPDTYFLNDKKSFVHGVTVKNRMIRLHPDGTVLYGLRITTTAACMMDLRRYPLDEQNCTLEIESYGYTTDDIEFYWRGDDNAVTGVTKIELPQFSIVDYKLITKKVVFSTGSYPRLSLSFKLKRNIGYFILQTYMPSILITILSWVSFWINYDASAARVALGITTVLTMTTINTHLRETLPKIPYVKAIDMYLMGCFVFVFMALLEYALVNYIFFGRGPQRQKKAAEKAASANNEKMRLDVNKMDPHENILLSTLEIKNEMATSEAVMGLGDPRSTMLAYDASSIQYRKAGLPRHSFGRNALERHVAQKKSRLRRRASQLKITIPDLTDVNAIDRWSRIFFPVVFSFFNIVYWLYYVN
T1 sequence (P18508 39-466): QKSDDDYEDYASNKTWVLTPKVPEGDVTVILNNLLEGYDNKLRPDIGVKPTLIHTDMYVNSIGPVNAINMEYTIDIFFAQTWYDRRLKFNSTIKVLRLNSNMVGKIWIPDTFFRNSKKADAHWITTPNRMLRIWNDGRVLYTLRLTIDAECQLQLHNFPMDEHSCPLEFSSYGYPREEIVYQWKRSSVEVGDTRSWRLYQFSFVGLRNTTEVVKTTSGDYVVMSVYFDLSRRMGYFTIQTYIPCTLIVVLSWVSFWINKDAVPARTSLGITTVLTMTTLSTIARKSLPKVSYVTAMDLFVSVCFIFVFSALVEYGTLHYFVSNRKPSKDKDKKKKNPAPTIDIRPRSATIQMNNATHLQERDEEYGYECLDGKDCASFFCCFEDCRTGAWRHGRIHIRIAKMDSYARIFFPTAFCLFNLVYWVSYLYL
Experimental: Xenopus laevis frogs were obtained from Nasco (Fort Atkinson, Wis., USA). The complementary DNAs encoding the GABAA subunits rat α1 and γ2s and human β2 were provided by Dr. M. H. Akabas and Dr. Paul Whiting, respectively. The in vitro transcription of α1, β2, and γ2s subunits was performed using mMessage mMachine® (Life Technologies, Grand Island, N.Y.). After isolation of Xenopus laevis oocytes, they were injected with capped complementary RNAs encoding α1, β2, and γ2s subunits in a ratio 2:2:20 ng. The injected oocytes were incubated at 15° C. in sterilized Barth's solution [MBS; composition: 88 mM NaCl, 1 mM KCl, 10 mM HEPES, 0.82 mM MgSO4, 2.4 mM NaHCO3, 0.91 mM CaCl2), and 0.33 mM Ca(NO3)2, pH 7.5] for 3-5 days before recording. All surgery was performed according to an approved institutional protocol. The responses of GABAARs expressed in oocytes were studied through two-electrode voltage clamp (Oocyte Clamp OC-725C, Warner Instruments, Hamden, Conn.), recording through a POWERLAB 4/30 system (ADInstruments, Colorado Springs, Colo.). The oocyte was placed in a chamber perfused with MBS, and voltage-clamped at −70 mV.

ethanol dependent rats = assay: Operant responding for alcohol in ethanol vapor-exposed dependent rats; format: in vivo, rat; settings: ethanol vapor-exposed rats; FIG. 18
Text: This example illustrates that ethanol dependent rats are motivated to work for ethanol reward during a period of forced abstinence and that DCUK-OEt reduces responding for the alcohol reward.
The methods used in this study are extensively described in (Vendruscolo et al., 2012). The rats were first trained to self-administer ethanol in an operant chamber. The rats were given free-choice access to alcohol (10% w/v) and water for 1 day in their home cages to habituate them to the taste of alcohol. The rats were then subjected to an overnight session in the operant chambers with access to one lever that delivered water (FR1). Food was available ad libitum during this training. After 1 day off, the rats were subjected to a 2 hour session (FR1) for 1 day and a 1 hour session (FR1) the next day, with one lever delivering alcohol. All of the subsequent sessions lasted 30 minutes, and two levers were available (left lever: water; right lever: alcohol). Once trained, the rats were made dependent by chronic, intermittent exposure to alcohol vapors (Gilpin et al., 2008). They underwent cycles of 14 hours of ethanol exposure (blood alcohol levels during vapor exposure ranged between 150 and 250 mg %) and 10 hours in the absence of ethanol vapor, during which behavioral testing for acute withdrawal occurred (i.e., 6-8 hours after vapor was turned off, when brain and blood alcohol levels were negligible). Nondependent rats were those not exposed to alcohol vapor. Pharmacological testing occurred after at least 2 months of vapor exposure, when full dependence was observed. DCUKA-OEt was administered i.p. at the doses specified in FIG. 18, sixty minutes prior to placing the animal in the operant chamber. The vehicle for DCUK-OEt was injected in certain animals as a control.

5-HT1B (Serotonin Rs) = 5-HT1B (Serotonin Rs) (Homo sapiens, UniProt P28222); assay: PDSP radioligand binding
Chain of 5-HT1B (Serotonin Rs) (P28222 whole entry): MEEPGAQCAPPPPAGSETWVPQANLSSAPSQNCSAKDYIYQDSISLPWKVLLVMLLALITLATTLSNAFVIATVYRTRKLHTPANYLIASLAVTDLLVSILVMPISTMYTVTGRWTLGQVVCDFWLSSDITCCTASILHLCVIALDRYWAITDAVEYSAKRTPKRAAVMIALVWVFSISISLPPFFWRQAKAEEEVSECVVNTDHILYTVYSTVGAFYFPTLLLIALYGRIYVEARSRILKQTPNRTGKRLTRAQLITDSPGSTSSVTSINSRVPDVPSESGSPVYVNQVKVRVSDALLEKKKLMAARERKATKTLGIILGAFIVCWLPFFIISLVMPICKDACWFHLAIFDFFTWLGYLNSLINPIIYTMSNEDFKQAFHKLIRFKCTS

[6] = biological target: M1 (Muscarinic Cholinergic Rs) (Homo sapiens, UniProt P11229); assay: PDSP radioligand binding
Chain of M1 (Muscarinic Cholinergic Rs) (P11229 whole entry): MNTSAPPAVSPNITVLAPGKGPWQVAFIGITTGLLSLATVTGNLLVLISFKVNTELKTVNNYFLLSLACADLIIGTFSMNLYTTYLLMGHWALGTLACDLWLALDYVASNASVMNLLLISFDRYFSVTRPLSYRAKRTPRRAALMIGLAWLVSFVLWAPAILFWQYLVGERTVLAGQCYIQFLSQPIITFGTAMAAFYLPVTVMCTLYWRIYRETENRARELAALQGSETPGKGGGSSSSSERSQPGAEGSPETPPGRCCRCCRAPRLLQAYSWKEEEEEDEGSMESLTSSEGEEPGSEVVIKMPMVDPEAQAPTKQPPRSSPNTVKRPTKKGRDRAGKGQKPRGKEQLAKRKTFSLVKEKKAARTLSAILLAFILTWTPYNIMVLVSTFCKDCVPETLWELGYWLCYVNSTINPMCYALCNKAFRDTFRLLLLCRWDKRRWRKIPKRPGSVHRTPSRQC

`O=C(O)c1cc(NC(=O)N(c2ccccc2)c2ccccc2)c2c(Cl)cc(Cl)cc2n1` [DCUKA, 5,7-dichloro-4-(3,3-diphenylureido)quinoline-2-carboxylic acid] was tested, and the “Mechanical pain threshold, ratio to baseline” value ([1]; 48-60 h after CFA, 50 mg/kg oral, three experiments combined, FIG. 7) was “a level not significantly different from the baseline level”, the “Mechanical pain threshold, ratio to baseline” value ([1]; 48 h after CFA, 50 mg/kg, DCUKA n=17, BCUKA n=6, FIG. 8) was “reversed the mechanical pain threshold to a level not significantly different from baseline” and the “Doses that significantly reversed the CFA-induced decrease of mechanical pain threshold” value ([1]; oral, 60 min, meta-analysis of five experiments, FIG. 9) was no less than 30 mg/kg. The “Mechanical pain threshold, ratio to baseline” value ([2]; cisplatin i.p. 7 mg/kg total, day 14, 1 and 2 hours, FIG. 6) was “significantly reversed the drop in mechanical pain threshold”, the “Mechanical pain threshold, ratio to pre-cisplatin baseline” value ([2]; rats, 1 hour after dosing, six experiments combined, FIG. 5) was “increases the mechanical pain threshold to control levels” and the Ki [3] was greater than 10 µM. For the same molecule, the Ki (5-HT2B (Serotonin Rs)) was greater than 10 µM, the “Character of action at the delta opiate receptor” value (delta opiate receptor) was “agonist” and the IC50 (delta opiate receptor; D1, DOR, 10 μM DA, DCUKA 0.25-20 μM, regression analysis, FIG. 3, read-out: IC50 for inhibition of cAMP accumulation) was 3.9 ± 0.47 µM. For the same molecule, the Ki [4] was greater than 10 µM, the “Character of action at the GABA-A receptor” value [5] was “positive allosteric modulators (PAM)” and the GABA-induced chloride currents ([5]; co-applied with EC10 GABA) was “significantly enhanced GABA-induced currents”. For the same molecule, the “Chloride currents, compound alone” value ([5]; without GABA) was “no effect on chloride currents by themselves”, the “Alcohol self-administration compared to baseline” value (ethanol dependent rats) was “no significant effect on repressing alcohol self-administration” and the Ki (5-HT1B (Serotonin Rs)) was greater than 10 µM. It also gave a Ki [6] greater than 10 µM.
